The numbers were not newly measured in US8389248B2, “Deoxyketohexose isomerase and method for producing deoxyhexose and derivative thereof using same” (priority 2006, dated 2013), which cites them from elsewhere.

For this data set, the system named is L-rhamnose isomerase. The note with it: for Influence of chelating agents on enzyme activity: chelating agent concurrently present during the assay of the activity.

Consider `O=C(O)CN(CCOCCOCCN(CC(=O)O)CC(=O)O)CC(=O)O` [EGTA], for which the “Influence of chelating agents on enzyme activity” value is listed as “hardly inhibited”. Turning to `[Co+2]` [cobalt ion], the “Influence of metal ions: inhibition of the enzyme” value (1 mM) was “about 30%”.

As for `O=C(O)CN(CCN(CC(=O)O)CC(=O)O)CC(=O)O` [EDTA], the “Influence of chelating agents on enzyme activity” value is listed as “hardly inhibited”.
